We go through ten compounds from publication PMC10485906, “Development of a Dihydroquinoline–Pyrazoline GluN2C/2D-Selective Negative Allosteric Modulator of the N-Methyl-D-aspartate Receptor” (ACS Chemical Neuroscience, 2023).

The structures appear in SMILES notation.

This data set can be described thus: Kinetic solubility in PBS (nephelometer). The following applies: Dulbecco's phosphate-buffered saline (DPBS), 25 °C, pH 7.2, aqueous buffer, kinetic from dmso stock, 1% DMSO, room temperature, n = 7. The format is physicochemical. The source says: Anticipating that the carboxylate side chain may hinder BBB penetrance, we synthesized and biologically screened a series of 2i prodrugs with ester and amide masking groups. With the classical physiochemical parameters required for brain exposure (i.e., molecular weight, MW, lipophilicity, and topological polar surface area, TPSA) and drug release mechanisms beyond the BBB in mind, we focused on simple alkyl-based promoieties. Our selected lead compound (2i), a close analogue (2a), and their corresponding prodrugs (2l–r) were studied in vitro to ascertain drug solubility, metabolic stability in liver microsomes (LMs), plasma stability, mouse brain homogenate stability, and cytochrome P450 (CYP450) inhibition (Tables S3 and S4 for predicted absorption, distribution, metabolism, and excretion or ADME parameters). […]
Methods for Kinetic Solubility Experiments
The test compounds were first dissolved in DMSO to provide stock solutions of either 30 mM or 60 mM. Kinetic solubility experiments were then performed in a 96-well microtiter plate (Clear-Bottom, Black, Corning® Costar) with a final volume of 250 µL per well in rows B-H. Each plate was initially prepared with the addition of 16 μL of DMSO to well A3, 20 μL to well A4, 27 μL to well A5, and 40 μL to all remaining wells in row A (A1 and A6-12). Next, the test compound (30 μL of DMSO stock solution) was directly added to well A2 without further modification. Moreover, the test compound (64 μL of DMSO stock solution) was diluted in well A3 to give a total volume of 80 μL. Further dilutions were then conducted by removing 60 µL from well A3 and adding it to A4, followed by removing 53 µL from well A4 and adding it to A5, followed by removing 40 µL from well A5 and adding it to A6, and sequentially removing 40 µL from the remaining wells up to A12. Well A1 served as a DMSO blank.
The sample solutions prepared in row A (2.5 µL from each well) were transferred to the corresponding wells in rows B-H. Dulbecco’s phosphate-buffered saline (DPBS, Gibco®, 1X, no Ca2+ and Mg2+, pH […]
7.1-7.3) was then added to all wells in rows B-H (30 µL each), and the 96-well plate was incubated at 25 °C for 1 min. Next, DPBS (217.5 µL) was added to all wells in rows B-H, and the 96-well plate was once more incubated at 25 °C for 2 h. This procedure provided seven replicate experiments with final concentrations of the test compound (1% DMSO in DPBS) ranging from either 300 to 0.9375 µM or 600 to 1.875 µM in rows B-H, depending on the whether a 30 mM or 60 mM DMSO stock solution was used, respectively (i.e. a 100-fold dilution from sample preparation in row A). After incubation, the plates were analyzed using a NEPHELOstar® microplate reader, and the segmental linear regression data was processed with MARS analysis software (BMG LabTech, see Supplemental Figure S4A for a representative example). […]
Synergy-S diffractometer. The crystal was kept at a steady T = 100.0(3) K during data collection. The structure was solved with the ShelXT 2018/2 (Sheldrick, 2015, Bauer and Gotz, 2021) solution program using dual methods and by using Olex2 1.5-alpha (Dolomanov et al., 2009) as the graphical interface.
The model was refined with olex2.refine 1.5-alpha (Bourhis et al., 2015) using full matrix least squares […]
which were used in all calculations. The final wR2 was 0.0983 (all data) and R1 was 0.0412 (I≥2 s(I)).
Take `CNC(=O)CC(F)(F)C(=O)N1N=C(c2c(-c3ccc(Cl)cc3)c3ccccc3[nH]c2=O)CC1c1ccc(Cl)cc1` (stereo not shown) [2q]: the kinetic solubility at 2 h worked out at 52 ± 13 µM. In the case of `O=C(CC(F)(F)C(=O)N1N=C(c2c(-c3ccc(Cl)cc3)c3ccccc3[nH]c2=O)CC1c1ccc(Cl)cc1)OCC1CC1` (stereo not shown) [2n], the kinetic solubility at 2 h stood at 27 ± 9 µM. To `CC(C)OC(=O)CC(F)(F)C(=O)N1N=C(c2c(-c3ccc(Cl)cc3)c3ccccc3[nH]c2=O)CC1c1ccc(Cl)cc1` (stereo not shown) [2m] belongs 43 ± 10 µM; to `O=C(O)CC(F)(F)C(=O)N1N=C(c2c(-c3ccc(Cl)cc3)c3ccccc3[nH]c2=O)CC1c1ccc(Cl)cc1` (stereo not shown) [2i], around 38 µM.

On to `NC(=O)CC(F)(F)C(=O)N1N=C(c2c(-c3ccc(Cl)cc3)c3ccccc3[nH]c2=O)CC1c1ccc(Cl)cc1` (stereo not shown) [2k], for which the solubility (kinetic) at 2 h is around 30 µM.

Turning to `CC(C)(C)COC(=O)CC(F)(F)C(=O)N1N=C(c2c(-c3ccc(Cl)cc3)c3ccccc3[nH]c2=O)CC1c1ccc(Cl)cc1` (stereo not shown) [2o], the solubility (kinetic) at 2 h turned out to be 52 ± 6.3 µM.

`O=C(O)CCC(=O)N1N=C(c2c(-c3ccc(Cl)cc3)c3ccccc3[nH]c2=O)CC1c1ccc(Cl)cc1` (stereo not shown) [2a]: the solubility (kinetic) at 2 h was around 208 µM.

Regarding `O=C(CC(F)(F)C(=O)N1N=C(c2c(-c3ccc(Cl)cc3)c3ccccc3[nH]c2=O)CC1c1ccc(Cl)cc1)OCc1ccccc1` (stereo not shown) [2p], the kinetic solubility at 2 h came to 40 ± 12 µM. To `CN(C)C(=O)CC(F)(F)C(=O)N1N=C(c2c(-c3ccc(Cl)cc3)c3ccccc3[nH]c2=O)CC1c1ccc(Cl)cc1` (stereo not shown) [2r] belongs 43 ± 5.1 µM; to `CCOC(=O)CC(F)(F)C(=O)N1N=C(c2c(-c3ccc(Cl)cc3)c3ccccc3[nH]c2=O)CC1c1ccc(Cl)cc1` (stereo not shown) [2l], 43 ± 18 µM.

The term kinetic solubility denotes solubility judged after dilution from a stock solution rather than from solid.
